{"source": "patent US12552811B2", "about": "“Immunosuppressant, and preparation method therefor and use thereof” (Abbisko Therapeutics Co., Ltd., priority 2020, dated 2026)", "key": {"[1]": {"assay": "Jurkat reporter gene cellular assay", "type": "cell-based", "conditions": "Homo sapiens; Jurkat/NF-κB-luc/PD1 + Raji-PD-L1 coculture, OKT3 1 μg/mL, 6 hrs, activation fold; read-out: Cell Activity EC50", "method": "The effect of compounds of the examples of the present invention and positive compounds on the interaction between PD-1 and PD-L1 expressed on cell surfaces, and the related influence on T cell functions, were determined by a Jurkat reporter gene cellular assay.\nBriefly, the reporter gene plasmid of NF-κB-luc and the plasmid of human PD-1 were transfected into Jurkat cells to establish a stably transfected cell line capable of stably expressing both PD-1 and NF-κB-Luc reporter genes; the expression level of PD-1 on the cell surface was confirmed by flow cytometry; and the expression of the reporter gene was confirmed via the response of the reporter gene stimulated by OKT-3 and Raiji cells.\nIn addition, the plasmid of human PD-L1 was transfected into Raji cells to obtain a cell line capable of stably expressing PD-L1. Jurkat/NF-κB-luc/PD1 cells and Raji-PD-L1 cells were then cocultured and stimulated with OKT-3. On this basis, the compounds were added, and the enhancement of the signal pathway of T cell activation by the inhibitory effect of the compounds on the interaction between PD-1 and PD-L1 was evaluated by readings of reporter gene responses. The specific experimental process was as follows: • 1) 30 μL of compound or antibody solution was added to each well of a white 96-well plate (coming, 3610) at different diluted concentrations, and 10 μL of OKT3 (Biolegend, 317326) was then added (the final concentration of OKT3: 1 μg/mL); • 2) 20 μL of Raji-PD-L1 cell suspension was added to each well with 5*10^4 cells for each well, and was incubated in an incubator for 20 min: • 3) 20 μL of Jurkat/NF-κb-luc/PD-1 cell suspension was added to each well with 5*10^4 cells for each well, and well mixed, and 6 hrs later, Bright-glo (Promega, E2620) was applied and plates were read on Envision; • 4) The reading of each well treated with the compound was compared with the reading of each well treated with DMSO to obtain the activation fold of the compound; • 5) EC50 values of compounds and positive compounds of the examples of the present invention were determined by non-linear regression analysis of activation folds at different compound concentrations."}, "[2]": {"target": "interaction between PD-1 and PD-L1 (Homo sapiens (Human), UniProt Q9NZQ7)", "sequence (Q9NZQ7 19-238)": "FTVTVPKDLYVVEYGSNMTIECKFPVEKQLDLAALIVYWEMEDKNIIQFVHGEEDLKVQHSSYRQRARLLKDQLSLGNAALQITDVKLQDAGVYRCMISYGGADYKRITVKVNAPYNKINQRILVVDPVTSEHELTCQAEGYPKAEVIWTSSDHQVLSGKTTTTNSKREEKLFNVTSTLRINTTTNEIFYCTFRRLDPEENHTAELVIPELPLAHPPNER", "assay": "PD1-PDL1 HTRF binding activity test", "conditions": "Cisbio PD-1/PD-L1 binding assay kit", "method": "I. PD1-PDL1 HTRF Binding Activity Test\nThe effect of compounds of the examples of the present invention on the interaction between PD-1 and PD-L1 was determined by the PD-1/PD-L1 binding assay kit from Cisbio (#64ICP01PEG or 64ICP01PEH). The detailed experimental process was as follows: • 1) Pre-diluted compound solution, 4 μL of Tag1-PD-L1 and 4 μL of Tag2-PD1 were added to each well of a 384-well plate: • 2) After the mixture was incubated at room temperature for 15 min, 5 μL of anti-Tag1-Eu3+ antibody and 5 μL of anti-Tag2-XL665 antibody were then added; • 3) After incubated for 2 hrs at room temperature or overnight at 4° C., plates were read on Envision of Pelkin Elmer; and readings at 665 nm and 620 nm were recorded, and the ratio of the two readings was taken as a reading for each well; • 4) The reading of each well after compound treatment was compared with the reading of DMSO treated wells to obtain the percent inhibition of the compound; • 5) IC50 values of compounds and positive compounds of the examples of the present invention were determined by non-linear regression analysis of percent inhibition at different compound concentrations. II. Jurkat Reporter Gene Cellular Assay"}, "[3]": {"assay": "Pharmacokinetic assay in mice", "type": "in vivo", "conditions": "male, mouse; ICR mice, PO 10 mg/kg, plasma", "method": "III. Pharmacokinetic Assay in Mice\nThe purpose of this study was to study the pharmacokinetic behaviors of some compounds of the present invention, and administration routes were: per oral administration (PO) to ICR mice at a dose of 10 mg/kg.\nThe compounds used in this test came from the compounds of the specific examples of the present invention.\nICR mice, male, N=3, with the original source of Shanghai Sippr-BK Laboratory Animal Co. Ltd.\n2.3 Preparation and Administration of Drug\nThe compounds were weighed, and dissolved in a solvent of 0.5% SDS+0.5% CMCNa. The mixture solutions were mixed well by shaking and ultrasonic treatment to obtain colorless clear solutions. The solutions were orally administered to nine mice after an overnight fast. The dosage of administration was 10 mg/kg.\n• 1) With about 90 μL/time point, blood was drawn from the submaxillary vein, and heparin sodium was added for anticoagulation. The blood samples were placed onto the ice, and were centrifuged (centrifugation conditions: 8000 r/min, 6 min, 2-8° C.) within 1 hr to obtain plasmas. • 2) The time points for blood sampling were at 0 hr, 0.25 hr, 0.5 hr, 1 hr, 2 hrs, 4 hrs, 6 hrs, 8 hrs and 24 hrs after administration. The samples were stored in a refrigerator at −20° C. • 3) 40 μL of plasma sample was added to 160 μL of cold acetonitrile containing an internal standard, and the mixture solution was vortexed for 3 min and centrifuged at 11,000 r/min for 5 min. • 4) 100 μL of supernate was taken and added to 100 μL of water, and 5 μL of the sample was taken and analyzed by LC/MS/MS.\nThe compounds from some representative examples of the present invention were administered and tested according to the above method, and their prototype compounds were detected."}}, "note": "pEC50, pIC50: −log10 of the molar value."}
{"smiles": "CC(C)N1CCc2cc(C(=O)Nc3cccc(-c4cccc(NC(=O)c5nc6c(n5C)CCN(CCC57C8C9C5C5C7C8C95C(=O)O)C6)c4Cl)c3Cl)ncc2C1", "note": "(centres unmarked) [Example 59, 4-(2-(2-((2,2′-dichloro-3′-(7-isopropyl-5,6,7,8-tetrahydro-2,7-naphthyridine-3-carboxamido)-[1,1′-biphenyl]-3-yl)carbamoyl)-1-methyl-1,4,6,7-tetrahydro-5H-imidazo[4,5-c]pyridin-5-yl)ethyl)cubane-1-carboxylic acid]", "values": [{"measurement": "pEC50", "setting": "[1]", "value": 7.47}, {"measurement": "pIC50", "setting": "[2]", "value": 9.04}, {"measurement": "AUC(0-t)", "setting": "[3]", "value": 2300, "unit": "ng·h/mL"}, {"measurement": "Cmax", "setting": "[3]", "value": 616, "unit": "ng/mL"}, {"measurement": "MRT", "setting": "[3]", "value": 2.4, "unit": "h"}, {"measurement": "Tmax", "setting": "[3]", "value": 0.5, "unit": "h"}, {"measurement": "half-life", "setting": "[3]", "value": 1.2, "unit": "h"}]}
{"smiles": "CC(C)N1CCc2cc(C(=O)Nc3cccc(-c4cccc(NC(=O)c5nc6c(n5C)CCN(CCC57CCC(C(=O)O)(CC5)CC7)C6)c4Cl)c3Cl)ncc2C1", "note": "[Example 58, 4-(2-(2-((2,2′-dichloro-3′-(7-isopropyl-5,6,7,8-tetrahydro-2,7-naphthyridine-3-carboxamido)-[1,1′-biphenyl]-3-yl)carbamoyl)-1-methyl-1,4,6,7-tetrahydro-5H-imidazo[4,5-c]pyridin-5-yl)ethyl)bicyclo [2.2.2]octane-1-carboxylic acid]", "values": [{"measurement": "pEC50", "setting": "[1]", "value": 7.27}, {"measurement": "pIC50", "setting": "[2]", "value": 9.14}, {"measurement": "AUC(0-t)", "setting": "[3]", "value": 13900, "unit": "ng·h/mL"}, {"measurement": "Cmax", "setting": "[3]", "value": 1630, "unit": "ng/mL"}, {"measurement": "MRT", "setting": "[3]", "value": 5.7, "unit": "h"}, {"measurement": "Tmax", "setting": "[3]", "value": 1, "unit": "h"}, {"measurement": "half-life", "setting": "[3]", "value": 3.8, "unit": "h"}]}
{"smiles": "CC(C)N1CCc2cc(C(=O)Nc3cccc(-c4cccc(NC(=O)c5nc6c(n5C)CCN(CCC57CCC(C(=O)O)(CC5)C7)C6)c4Cl)c3Cl)ncc2C1", "note": "[Example 1, 4-(2-(2-((2,2′-dichloro-3′-(7-isopropyl-5,6,7,8-tetrahydro-2,7-naphthyridine-3-carboxamido)-[1,1′-biphenyl]-3-yl)carbamoyl)-1-methyl-1,4,6,7-tetrahydro-5H-imidazo[4,5-c]pyridin-5-yl)ethyl)bicyclo[2.2.1]heptane-1-carboxylic acid]", "values": [{"measurement": "pEC50", "setting": "[1]", "value": 7.27}, {"measurement": "pIC50", "setting": "[2]", "value": 9.14}, {"measurement": "AUC(0-t)", "setting": "[3]", "value": 18400, "unit": "ng·h/mL"}, {"measurement": "Cmax", "setting": "[3]", "value": 2850, "unit": "ng/mL"}, {"measurement": "MRT", "setting": "[3]", "value": 4.9, "unit": "h"}, {"measurement": "Tmax", "setting": "[3]", "value": 0.5, "unit": "h"}, {"measurement": "half-life", "setting": "[3]", "value": 3.6, "unit": "h"}]}
{"smiles": "CN1CCc2cc(C(=O)Nc3cccc(-c4cccc(NC(=O)c5nc6c(n5C)CCN(CCC57CCC(C(=O)O)(CC5)C7)C6)c4Cl)c3Cl)ncc2C1", "note": "[Example 2, 4-(2-(2-((2,2′-dichloro-3′-(7-methyl-5,6,7,8-tetrahydro-2,7-naphthyridine-3-carboxamido)-[1,1′-biphenyl]-3-yl)carbamoyl)-1-methyl-1,4,6,7-tetrahydro-5H-imidazo[4,5-c]pyridin-5-yl)ethyl)bicyclo[2.2.1] heptane-1-carboxylic acid]", "values": [{"measurement": "pEC50", "setting": "[1]", "value": 7.30}, {"measurement": "pIC50", "setting": "[2]", "value": 9.75}, {"measurement": "AUC(0-t)", "setting": "[3]", "value": 1820, "unit": "ng·h/mL"}, {"measurement": "Cmax", "setting": "[3]", "value": 2320, "unit": "ng/mL"}, {"measurement": "MRT", "setting": "[3]", "value": 1.8, "unit": "h"}, {"measurement": "Tmax", "setting": "[3]", "value": 0.083, "unit": "h"}, {"measurement": "half-life", "setting": "[3]", "value": 4, "unit": "h"}]}
{"smiles": "CC(C)N1CCc2cc(C(=O)Nc3cccc(-c4cccc(NC(=O)c5nc6c(n5C)CCN(CCC57CC(C(=O)O)(C5)C7)C6)c4Cl)c3Cl)ncc2C1", "note": "[Example 60, 3-(2-(2-((2,2′-dichloro-3′-(7-isopropyl-5,6,7,8-tetrahydro-2,7-naphthyridine-3-carboxamido)-[1,1′-biphenyl]-3-yl)carbamoyl)-1-methyl-1,4,6,7-tetrahydro-5H-imidazo[4,5-c]pyridin-5-yl)ethyl)bicyclo [1.1.1]pentane-1-carboxylic acid]", "values": [{"measurement": "pEC50", "setting": "[1]", "value": 7.53}, {"measurement": "pIC50", "setting": "[2]", "value": 9.60}, {"measurement": "AUC(0-t)", "setting": "[3]", "value": 4250, "unit": "ng·h/mL"}, {"measurement": "Cmax", "setting": "[3]", "value": 2420, "unit": "ng/mL"}, {"measurement": "MRT", "setting": "[3]", "value": 2, "unit": "h"}, {"measurement": "Tmax", "setting": "[3]", "value": 0.5, "unit": "h"}, {"measurement": "half-life", "setting": "[3]", "value": 1.6, "unit": "h"}]}
